The values below come from patent US6696433B2, “Use of sex steroids function modulators to treat wounds and fibrotic disorders” (Renovo Limited, priority 1996, dated 2004).

Each structure is given as a SMILES string.

For the experiment, the system named is full thickness incisional wounds. As to the kind of experiment: Incisional wound healing in OVX and sham rats, histology at day 7 post-wounding. The settings on record: day 7 wound from an intact female rat treated with oestrogen. Format: in vivo, Female Sprague Dawley rats.

For `C[C@]12CC[C@@H]3c4ccc(O)cc4CC[C@H]3[C@@H]1CC[C@@H]2O` [Oestrogen], the “wound healing in stained sections (FIG. 1 c)” value was “improved wound healing”.
